Laboratory results taken from patent US8450317B2, “CXCR3 receptor antagonists” (Boehringer Ingelheim International GmbH, priority 2009, dated 2013).

Biological target: CXCR3 (Macaca fascicularis, UniProt A0A2K5UV19)
Experiment: functional cellular assay measuring calcium flux in CXCR3 transfected cells (block of CXCR3/IP-10 interaction)
Type: cell-based, Cyno
Conditions: IP-10 induced intracellular calcium flux; Cyno-CHO cells stably expressing recombinant CXCR3 and G-alpha-16; IP-10 at EC80; read-out: IC50
Method in brief: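 Cyno-CHO cells stably expressing CXCR3 and G-alpha-16, loaded with Ca-4 dye in HBSS/10 mM HEPES pH 7.4 with 2 mM probenecid for 1 h at 37° C. Compound (final 10 microM) preincubated 15 min at room temperature, then IP-10 at EC80 added; calcium flux read at 480/540 nm.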

Chain of CXCR3 (A0A2K5UV19 entry or part of it): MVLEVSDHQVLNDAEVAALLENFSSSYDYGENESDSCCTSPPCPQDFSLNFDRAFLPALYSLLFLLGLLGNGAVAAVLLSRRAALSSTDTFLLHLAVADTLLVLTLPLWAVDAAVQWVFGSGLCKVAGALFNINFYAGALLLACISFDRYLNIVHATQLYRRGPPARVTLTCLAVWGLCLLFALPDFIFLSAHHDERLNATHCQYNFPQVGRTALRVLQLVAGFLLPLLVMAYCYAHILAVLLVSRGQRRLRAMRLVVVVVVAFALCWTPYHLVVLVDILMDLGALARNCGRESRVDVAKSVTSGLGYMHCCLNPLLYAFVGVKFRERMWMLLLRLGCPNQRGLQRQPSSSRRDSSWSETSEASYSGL

Structure (SMILES) | IC50 [µM]
Cc1cc(C)n(CC(=O)N2CCN(c3ccc(F)cc3-c3cnc(N4CCCC4)nc3)CC2)n1 [2-(3,5-dimethyl-1H-pyrazol-1-yl)-1-(4-{4-fluoro-2-[2-(pyrrolidin-1-yl)pyrimidin-5-yl]phenyl}piperazin-1-yl)ethanone] | 0.016
Cc1cc(C)n(CC(=O)N2CCN(c3ccccc3-c3cnc(N4CCC(S(C)(=O)=O)CC4)nc3)CC2C)n1 (centres unmarked) [2-(3,5-dimethyl-1H-pyrazol-1-yl)-1-[2-methyl-4-(2-{2-[4-(methylsulfonyl)piperidin-1-yl]pyrimidin-5-yl}phenyl)piperazin-1-yl]ethanone] | 0.009
Cc1cc(C)n(CC(=O)N2CCN(c3ccc(F)cc3-c3cnc(N4CCC(S(C)(=O)=O)CC4)nc3)CC2C)n1 (centres unmarked) [2-(3,5-dimethyl-1H-pyrazol-1-yl)-1-[4-(4-fluoro-2-{2-[4-(methylsulfonyl)piperidin-1-yl]pyrimidin-5-yl}phenyl)-2-methylpiperazin-1-yl]ethanone] | 0.01
Cc1cc(C)n(CC(=O)N2CCN(c3ccc(F)cc3-c3cnc(N4CCC(S(C)(=O)=O)CC4)nc3)CC2)n1 [2-(3,5-dimethyl-1H-pyrazol-1-yl)-1-[4-(4-fluoro-2-{2-[4-(methylsulfonyl)piperidin-1-yl]pyrimidin-5-yl}phenyl)piperazin-1-yl]ethanone] | 0.011
Cc1cc(C)n(CC(=O)N2CCN(c3ccc(C(F)(F)F)cc3-c3cnc(N4CCC(S(C)(=O)=O)CC4)nc3)CC2C)n1 (centres unmarked) [2-(3,5-dimethyl-1H-pyrazol-1-yl)-1-{2-methyl-4-[2-{2-[4-(methylsulfonyl)piperidin-1-yl]pyrimidin-5-yl}-4-(trifluoromethyl)phenyl]piperazin-1-yl}ethanone] | 0.007
CC1CN(c2ccc(C(F)(F)F)cc2-c2cnc(S(C)(=O)=O)nc2)CCN1C(=O)Cn1cnc2cccnc21 (centres unmarked) [2-(3H-imidazo[4,5-b]pyridin-3-yl)-1-(2-methyl-4-{2-[2-(methylsulfonyl)pyrimidin-5-yl]-4-(trifluoromethyl)phenyl}piperazin-1-yl)ethanone] | 0.189
CC1CN(c2ccccc2-c2cnc(S(C)(=O)=O)nc2)CCN1C(=O)Cn1cnc2cccnc21 (centres unmarked) [2-(3H-imidazo[4,5-b]pyridin-3-yl)-1-(2-methyl-4-{2-[2-(methylsulfonyl)pyrimidin-5-yl]phenyl}piperazin-1-yl)ethanone] | 0.434
CC1CN(c2ccccc2-c2cnc(N3CCC(S(C)(=O)=O)CC3)nc2)CCN1C(=O)Cn1cnc2cccnc21 (centres unmarked) [2-(3H-imidazo[4,5-b]pyridin-3-yl)-1-[2-methyl-4-(2-{2-[4-(methylsulfonyl)piperidin-1-yl]pyrimidin-5-yl}phenyl)piperazin-1-yl]ethanone] | 0.014
CC1CN(c2ccc(C(F)(F)F)cc2-c2cnc(N3CCC(S(C)(=O)=O)CC3)nc2)CCN1C(=O)Cn1cnc2cccnc21 (centres unmarked) [2-(3H-imidazo[4,5-b]pyridin-3-yl)-1-{2-methyl-4-[2-{2-[4-(methylsulfonyl)piperidin-1-yl]pyrimidin-5-yl}-4-(trifluoromethyl)phenyl]piperazin-1-yl}ethanone] | 0.007
COc1ncc(-c2ccccc2N2CCN(C(=O)Cn3nc(C)c(Cl)c3C)CC2)cn1 [2-(4-Chloro-3,5-dimethyl-pyrazol-1-yl)-1-{4-[2-(2-methoxy-pyrimidin-5-yl)-phenyl]-piperazin-1-yl}-ethanone] | 0.01
COc1ncc(-c2ccccc2N2CCN(C(=O)Cn3ccc4c(Cl)ncnc43)CC2)cn1 [2-(4-Chloro-pyrrolo[2,3-d]pyrimidin-7-yl)-1-{4-[2-(2-methoxy-pyrimidin-5-yl)-phenyl]-piperazin-1-yl}-ethanone] | 0.048
COc1ncc(-c2ccccc2N2CCN(C(=O)Cn3ccc4cc(F)cnc43)CC2)cn1 [2-(5-Fluoro-pyrrolo[2,3-b]pyridin-1-yl)-1-{4-[2-(2-methoxy-pyrimidin-5-yl)-phenyl]-piperazin-1-yl}-ethanone] | 0.008
COc1ncc(-c2ccccc2N2CCN(C(=O)Cn3ccc4ccnc(Cl)c43)CC2)cn1 [2-(7-Chloro-pyrrolo[2,3-c]pyridin-1-yl)-1-{4-[2-(2-methoxy-pyrimidin-5-yl)-phenyl]-piperazin-1-yl}-ethanone] | 0.016
COc1ncc(-c2ccccc2N2CCN(C(=O)Cn3cnc4cccnc43)CC2)cn1 [2-Imidazo[4,5-b]pyridin-3-yl-1-{4-[2-(2-methoxy-pyrimidin-5-yl)-phenyl]-piperazin-1-yl}-ethanone] | 0.015
COc1ncc(-c2ccccc2N2CCN(C(=O)Cn3ncc4ccccc43)CC2)cn1 [2-Indazol-1-yl-1-{4-[2-(2-methoxy-pyrimidin-5-yl)-phenyl]-piperazin-1-yl}-ethanone] | 0.035
COc1ncc(-c2ccccc2N2CCN(C(=O)Cn3cc4ccccc4n3)CC2)cn1 [2-Indazol-2-yl-1-{4-[2-(2-methoxy-pyrimidin-5-yl)-phenyl]-piperazin-1-yl}-ethanone] | 0.028

Structure (SMILES) | IC50 [µM]
COc1ncc(-c2ccccc2N2CCN(C(=O)Cn3ccc4ccccc43)CC2)cn1 [2-Indol-1-yl-1-{4-[2-(2-methoxy-pyrimidin-5-yl)-phenyl]-piperazin-1-yl}-ethanone] | 0.044
CC1CN(c2ccc(C(F)(F)F)cc2-c2cnc(S(C)(=O)=O)nc2)CCN1C(=O)CN1Cc2ccccc2C1=O (centres unmarked) [2-[2-(2-methyl-4-{2-[2-(methylsulfonyl)pyrimidin-5-yl]-4-(trifluoromethyl)phenyl}piperazin-1-yl)-2-oxoethyl]-2,3-dihydro-1H-isoindol-1-one] | 0.101
CC1CN(c2ccccc2-c2cnc(S(C)(=O)=O)nc2)CCN1C(=O)CN1Cc2ccccc2C1=O (centres unmarked) [2-[2-(2-methyl-4-{2-[2-(methylsulfonyl)pyrimidin-5-yl]phenyl}piperazin-1-yl)-2-oxoethyl]-2,3-dihydro-1H-isoindol-1-one] | 0.293
CC1CN(c2ccc(C(F)(F)F)cc2-c2cnc(N3CCC(O)CC3)nc2)CCN1C(=O)CN1Cc2ccccc2C1=O (centres unmarked) [2-[2-(4-{2-[2-(4-hydroxypiperidin-1-yl)pyrimidin-5-yl]-4-(trifluoromethyl)phenyl}-2-methylpiperazin-1-yl)-2-oxoethyl]-2,3-dihydro-1H-isoindol-1-one] | 0.009
CC1CN(c2ccccc2-c2cnc(N3CCC(O)CC3)nc2)CCN1C(=O)CN1Cc2ccccc2C1=O (centres unmarked) [2-[2-(4-{2-[2-(4-hydroxypiperidin-1-yl)pyrimidin-5-yl]phenyl}-2-methylpiperazin-1-yl)-2-oxoethyl]-2,3-dihydro-1H-isoindol-1-one] | 0.01
O=C(CN1Cc2ccccc2C1=O)N1CCN(c2ccc(F)cc2-c2cnc(N3CCC(O)CC3)nc2)CC1 [2-[2-(4-{4-fluoro-2-[2-(4-hydroxypiperidin-1-yl)pyrimidin-5-yl]phenyl}piperazin-1-yl)-2-oxoethyl]-2,3-dihydro-1H-isoindol-1-one] | 0.009
CN1CCN(c2ncc(-c3cc(F)ccc3N3CCN(C(=O)CN4Cc5ccccc5C4=O)CC3)cn2)CC1 [2-[2-(4-{4-fluoro-2-[2-(4-methylpiperazin-1-yl)pyrimidin-5-yl]phenyl}piperazin-1-yl)-2-oxoethyl]-2,3-dihydro-1H-isoindol-1-one] | 0.026
CC1CN(c2ccc(F)cc2-c2cnc(S(C)(=O)=O)nc2)CCN1C(=O)CN1Cc2ccccc2C1=O (centres unmarked) [2-[2-(4-{4-fluoro-2-[2-(methylsulfonyl)pyrimidin-5-yl]phenyl}-2-methylpiperazin-1-yl)-2-oxoethyl]-2,3-dihydro-1H-isoindol-1-one] | 0.245
CS(=O)(=O)c1ncc(-c2cc(F)ccc2N2CCN(C(=O)CN3Cc4ccccc4C3=O)CC2)cn1 [2-[2-(4-{4-fluoro-2-[2-(methylsulfonyl)pyrimidin-5-yl]phenyl}piperazin-1-yl)-2-oxoethyl]-2,3-dihydro-1H-isoindol-1-one] | 0.249
O=C(CN1Cc2ccccc2C1=O)N1CCN(c2ccc(F)cc2-c2cnc(N3CCOCC3)nc2)CC1 [2-[2-(4-{4-fluoro-2-[2-(morpholin-4-yl)pyrimidin-5-yl]phenyl}piperazin-1-yl)-2-oxoethyl]-2,3-dihydro-1H-isoindol-1-one] | 0.023
O=C(CN1Cc2ccccc2C1=O)N1CCN(c2ccc(F)cc2-c2cnc(N3CCCC3)nc2)CC1 [2-[2-(4-{4-fluoro-2-[2-(pyrrolidin-1-yl)pyrimidin-5-yl]phenyl}piperazin-1-yl)-2-oxoethyl]-2,3-dihydro-1H-isoindol-1-one] | 0.015
O=C(Cn1ccc2cccnc21)N1CCN(c2ccccc2N2Cc3ccccc3C2=O)CC1 [2-{2-[4-(2-Pyrrolo[2,3-b]pyridin-1-yl-acetyl)-piperazin-1-yl]-phenyl}-2,3-dihydro-isoindol-1-one] | 0.048
CC1CN(c2ccc(F)cc2-c2cnc(N3CCC(S(C)(=O)=O)CC3)nc2)CCN1C(=O)CN1Cc2ccccc2C1=O (centres unmarked) [2-{2-[4-(4-fluoro-2-{2-[4-(methylsulfonyl)piperidin-1-yl]pyrimidin-5-yl}phenyl)-2-methylpiperazin-1-yl]-2-oxoethyl}-2,3-dihydro-1H-isoindol-1-one] | 0.01
CS(=O)(=O)C1CCN(c2ncc(-c3cc(F)ccc3N3CCN(C(=O)CN4Cc5ccccc5C4=O)CC3)cn2)CC1 [2-{2-[4-(4-fluoro-2-{2-[4-(methylsulfonyl)piperidin-1-yl]pyrimidin-5-yl}phenyl)piperazin-1-yl]-2-oxoethyl}-2,3-dihydro-1H-isoindol-1-one] | 0.009
COc1cc(NC(=O)c2cc(F)ccc2N2CCN(C(=O)Cn3nc(C)cc3C)[C@H](C)C2)ccn1 [2-{(3R)-4-[(3,5-dimethyl-1H-pyrazol-1-yl)acetyl]-3-methylpiperazin-1-yl}-5-fluoro-N-(2-methoxypyridin-4-yl)benzamide] | 0.008
Cc1cc(C)n(CC(=O)N2CCN(c3ccc(F)cc3C(=O)Nc3nc4c(s3)CN(C)CC4)C[C@H]2C)n1 [2-{(3R)-4-[(3,5-dimethyl-1H-pyrazol-1-yl)acetyl]-3-methylpiperazin-1-yl}-5-fluoro-N-(5-methyl-4,5,6,7-tetrahydro[1,3]thiazolo[5,4-c]pyridin-2-yl)benzamide] | 0.015
